Test results published in patent publication US9637485B2, “6,7-dihydrobenzo[a]quinolizin-2-one derivatives for the treatment and prophylaxis of hepatitis B virus infection” (Hoffmann-La Roche Inc., priority 2014, dated 2017).
Read-outs that look alike come from different tables or passages of the source.

Key:
HBsAg = HBsAg assay (CLIA of secreted HBsAg in HepG2.2.15 culture supernatant); assay type: cell-based, HBV
Method: (§1) HepG2.2.15 cells (Acs et al. Proc Natl Acad Sci USA, 84, (1987), 4641-4), a constitutively HBV-expressing cell line were cultured in DMEM+Glutamax-I medium (Invitrogen, Carlsbad, Calif., USA, Catalog number: 11320082), supplemented with 10% fetal bovine serum (Invitrogen, Catalog number: 10099141) and G418 (Invitrogen, Catalog number: 10131027) at a final concentration of 200 mg/L and maintained in 5% CO2 at 37° C.
HepG2.2.15 cells were seeded in duplicate into white, 96-well plates at 1.5×10^4 cells/well. The cells were treated with a three-fold serial dilution series of the compounds in DMSO. The final DMSO concentration in all wells was 1% and DMSO was used as no drug control.
The HBsAg chemiluminescence immunoassay (CLIA) kit (Autobio Diagnostics Co., Zhengzhou, China, Catalog number: CL0310-2) was used to measure the levels of secreted HBV antigens semi-quantitatively. For the detection 50 μL/well culture supernatant was used and HBsAg was quantified using HBsAg chemiluminescence immunoassay (CLIA) kit (Autobio Diagnostics Co., Zhengzhou, China, Catalog number: CL0310-2), 50 μl of the supernatant was transferred to the CLIA assay plate and 50 μL of enzyme conjugate reagent was added into each well. The plates were sealed and gently agitated for 1 hour at room temperature. The supernatant-enzyme-mixture was discarded and wells were washed 6 times with 300 μL of PBS. The residual liquid was removed by plating the CLIA plate right side down on absorbent tissue paper. 25 μL of substrates A and B were added to each well. Luminance was measured using a luminometer (Mithras LB 940 Multimode Microplate Reader) after 10 minutes incubation. Dose-response curves were generated and the IC50 value was extrapolated by using the E-WorkBook Suite (ID Business Solutions Ltd., Guildford, UK). The IC50 was defined as the compound concentration (or conditioned media log dilution) at which HBsAg secretion was reduced by 50% compared to the no drug control.

HBV DNA = HBV DNA assay (real-time qPCR/TaqMan of extracellular HBV DNA, HepG2.2.15 cells); assay type: cell-based; conditions: Hepatitis B virus, 144 h, supernatant six days after initial administration, qPCR, read-out: IC50 (Anti HBV DNA production activity)
Method: as §1
The assay employs real-time qPCR (TaqMan) to directly measure extracellular HBV DNA copy number. HepG2.2.15 cells were plated in 96-well microtiter plates. Only the interior wells were utilized to reduce “edge effects” observed during cell culture, the exterior wells were filled with complete medium to help minimize sample evaporation. On the following day, the HepG2.2.15 cells were washed and the medium was replaced with complete medium containing various concentrations of a test compound in triplicate. 3TC was used as the positive control, while media alone was added to cells as a negative control (virus control, VC). Three days later, the culture medium was replaced with fresh medium containing the appropriately diluted drug. […] Antiviral activity was calculated from the reduction in HBV DNA levels (IC50).

[1] = read-out: IC50 (HBsAg secretion reduced by 50% compared to the no drug control), HepG2.2.15 cells, culture supernatant, HBsAg CLIA
[2] = Hepatitis B virus, HepG2.2.15, read-out: IC50 (HBsAg secretion reduced by 50% compared to the no drug control), HepG2.2.15 cells, culture supernatant, HBsAg CLIA

Compound | IC50 (HBsAg; [1]) [nM] | IC50 (HBV DNA) [nM] | IC50 (HBsAg; [2]) [nM]
COCCCOc1cc2c(cc1OC)-c1cc(=O)c(C(=O)O)cn1[C@H](C(C)(C)CO)C2 (single isomer, unassigned) [Example 25, (+)-6-(2-Hydroxy-1,1-dimethyl-ethyl)-10-methoxy-9-(3-methoxypropoxy)-2-oxo-6,7-dihydrobenzo[a]quinolizine-3-carboxylic acid] | 2 | < 32 | 
COCCCOc1cc2c(cc1OC)-c1cc(=O)c(C(=O)O)cn1C(C(C)(C)COC)C2 (single isomer, unassigned) [Example 28, (+)-10-Methoxy-6-(2-methoxy-1,1-dimethyl-ethyl)-9-(3-methoxypropoxy)-2-oxo-6,7-dihydrobenzo[a]quinolizine-3-carboxylic acid] | 3 | 0.5 | 
COCCCOc1cc2c(cc1OC)-c1cc(=O)c(C(=O)O)cn1C(COC)C2 (stereo not shown) [Example 18, 10-Methoxy-6-(methoxymethyl)-9-(3-methoxypropoxy)-2-oxo-6,7-dihydrobenzo[a]quinolizine-3-carboxylic acid] |  |  | 75
COCCCOc1cc2c(cc1Cl)-c1cc(=O)c(C(=O)O)cn1C(C1CCOCC1)C2 (stereo not shown) [Example 19, 10-Chloro-9-(3-methoxypropoxy)-2-oxo-6-tetrahydropyran-4-yl-6,7-dihydrobenzo[a]quinolizine-3-carboxylic acid] |  |  | 88
COCCCOc1cc2c(cc1OC)-c1cc(=O)c(C(=O)O)cn1C(C(C)(C)COCc1ccccc1)C2 (stereo not shown) [Example 23, 6-(2-Benzyloxy-1,1-dimethyl-ethyl)-10-methoxy-9-(3-methoxypropoxy)-2-oxo-6,7-dihydrobenzo[a]quinolizine-3-carboxylic acid] |  |  | 18
COCCOc1cc2c(cc1Cl)-c1cc(=O)c(C(=O)O)cn1C(CSC)C2 (stereo not shown) [Example 33, 10-Chloro-9-(2-methoxyethoxy)-6-(methylsulfanylmethyl)-2-oxo-6,7-dihydrobenzo[a]quinolizine-3-carboxylic acid] |  |  | 117
COCCOc1cc2c(cc1Cl)-c1cc(=O)c(C(=O)O)cn1C(CS(C)(=O)=O)C2 (stereo not shown) [Example 34, 10-Chloro-9-(2-methoxyethoxy)-6-(methylsulfonylmethyl)-2-oxo-6,7-dihydrobenzo[a]quinolizine-3-carboxylic acid] |  |  | 3380
CCOc1cc2c(cc1OCC)-c1cc(=O)c(C(=O)O)cn1C(CO)C2 (stereo not shown) [Example 35, 9,10-Diethoxy-6-(hydroxymethyl)-2-oxo-6,7-dihydrobenzo[a]quinolizine-3-carboxylic acid] |  |  | 868
CCOc1cc2c(cc1OCC)-c1cc(=O)c(C(=O)O)cn1C(COC(C)=O)C2 (stereo not shown) [Example 36, 6-(Acetoxymethyl)-9,10-diethoxy-2-oxo-6,7-dihydrobenzo[a]quinolizine-3-carboxylic acid] |  |  | 254
CCOc1cc2c(cc1OCC)-c1cc(=O)c(C(=O)O)cn1C(CN)C2 (stereo not shown) [Example 37, 6-(Aminomethyl)-9,10-diethoxy-2-oxo-6,7-dihydrobenzo[a]quinolizine-3-carboxylic acid] |  |  | 1540
CCOc1cc2c(cc1OCC)-c1cc(=O)c(C(=O)O)cn1C(CNS(C)(=O)=O)C2 (stereo not shown) [Example 38, 9,10-Diethoxy-6-(methanesulfonamidomethyl)-2-oxo-6,7-dihydrobenzo[a]quinolizine-3-carboxylic acid] |  |  | 33300
CCOc1cc2c(cc1OCC)-c1cc(=O)c(C(=O)O)cn1C(CNC(=O)c1ccccc1)C2 (stereo not shown) [Example 39, 6-(Benzamidomethyl)-9,10-diethoxy-2-oxo-6,7-dihydrobenzo[a]quinolizine-3-carboxylic acid] |  |  | 19800
CCOc1cc2c(cc1OCC)-c1cc(=O)c(C(=O)O)cn1C(CN1CCCC1=O)C2 (stereo not shown) [Example 40, 9,10-Diethoxy-2-oxo-6-[(2-oxopyrrolidin-1-yl)methyl]-6,7-dihydrobenzo[a]quinolizine-3-carboxylic acid] |  |  | 7450
CCOc1cc2c(cc1OCC)-c1cc(=O)c(C(=O)O)cn1C(CN(C)C(C)=O)C2 (stereo not shown) [Example 41, 6-[[Acetyl(methyl)amino]methyl]-9,10-diethoxy-2-oxo-6,7-dihydrobenzo[a]quinolizine-3-carboxylic acid] |  |  | 4860
CCOc1cc2c(cc1OCC)-c1cc(=O)c(C(=O)O)cn1C(CN1CCCC1)C2 (stereo not shown) [Example 42, 9,10-Diethoxy-2-oxo-6-(pyrrolidin-1-ylmethyl)-6,7-dihydrobenzo[a]quinolizine-3-carboxylic acid] |  |  | 216
CCOc1cc2c(cc1OCC)-c1cc(=O)c(C(=O)O)cn1C(CN(C)C)C2 (stereo not shown) [Example 43, 6-[(Dimethylamino)methyl]-9,10-diethoxy-2-oxo-6,7-dihydrobenzo[a]quinolizine-3-carboxylic acid] |  |  | 134
COCC(C)(C)C1Cc2cc(OCCCn3cccn3)c(OC)cc2-c2cc(=O)c(C(=O)O)cn21 (stereo not shown) [Example 44, 10-Methoxy-6-(2-methoxy-1,1-dimethyl-ethyl)-2-oxo-9-(3-pyrazol-1-ylpropoxy)-6,7-dihydrobenzo[a]quinolizine-3-carboxylic acid] |  |  | 190
CCc1cc2c(cc1OC)-c1cc(=O)c(C(=O)O)cn1C(C(C)(C)COC)C2 (stereo not shown) [Example 45, 9-Ethyl-10-methoxy-6-(2-methoxy-1,1-dimethyl-ethyl)-2-oxo-6,7-dihydrobenzo[a]quinolizine-3-carboxylic acid] |  |  | 74
COCC(C)(C)C1Cc2cc(N3CCCC3)c(OC)cc2-c2cc(=O)c(C(=O)O)cn21 (stereo not shown) [Example 46, 10-Methoxy-6-(2-methoxy-1,1-dimethyl-ethyl)-2-oxo-9-pyrrolidin-1-yl-6,7-dihydrobenzo[a]quinolizine-3-carboxylic acid] |  |  | 9
COCC(C)(C)C1Cc2cc(C#N)c(OC)cc2-c2cc(=O)c(C(=O)O)cn21 (stereo not shown) [Example 47, 9-Cyano-10-methoxy-6-(2-methoxy-1,1-dimethyl-ethyl)-2-oxo-6,7-dihydrobenzo[a]quinolizine-3-carboxylic acid] |  |  | 230
